Source: patent publication US6096930A, “Herbicidal cyclohexane-1,3-dione derivatives and their preparation process” (Korea Research Institute of Chemical Technology, priority 1994, dated 2000)
Where two headings read alike, the source gives them in different places.

Assays:
Format in all cases: in vivo
[1] = tested on: BROJA; assay: Herbicidal activity, upland test, pre-emergence
Protocol: (§1) The sterilized sandy loam soil is filled in test pot having a surface area of 348 cm^2 for upland test conditions or 115 cm^2 for paddy test species were planted in furrows.
(§2) For the pre-emergent tests, were sprayed on the soil one day after planting test compound in a mixture of acetone and 7 ml of the water containing up to 0.1% Tween 20.
(§3) The concentration of the test compound in solution was varied to give a range of application rates, generally 4.0 kg/ha and submultiples thereof. The pots were placed in a greenhouse and watered regularly at the soil surface for 21 days and herbicidal effects were visually rated by a percent control.
(§4) The herbicidal activity data were taken visually by percent control, wherein 0 signifies no herbicidal effect and 100 signifies complete kill.

[2] = tested on: PANDI; assay: Herbicidal activity, upland test, pre-emergence
Protocol: as §1, §2, §3, §4

[3] = tested on: SOLNI; assay: Herbicidal activity, upland test, pre-emergence
Protocol: as §1, §2, §3, §4

[4] = tested on: SORBI; assay: Herbicidal activity, upland test, pre-emergence
Protocol: as §1, §2, §3, §4

[5] = tested on: ZEAMX; assay: Herbicidal activity, upland test, pre-emergence
Protocol: as §1, §2, §3, §4

[6] = tested on: ABUTH; assay: Herbicidal activity, upland test, post-emergence
Text: as §1
(§5) The pots for the post-emergent tests were placed in a greenhouse and watered for 9~14 days, then the foliage of test plants was sprayed with a solution of the test compound in a mixture of acetone and water containing a small amount of Tween 20.
(§6) After spraying the plants were kept for one day, then watered regularly for 14 to 21 days, and herbicidal activity data were recorded.
as §4

[7] = tested on: AESIN; assay: Herbicidal activity, upland test, post-emergence
Text: as §1, §5, §6, §4

[8] = tested on: BROJA; assay: Herbicidal activity, upland test, post-emergence
Text: as §1, §5, §6, §4

[9] = tested on: DIGSA; assay: Herbicidal activity, upland test, post-emergence
Text: as §1, §5, §6, §4

[10] = tested on: ECHOR; assay: Herbicidal activity, upland test, post-emergence
Text: as §1, §5, §6, §4

[11] = tested on: GLXMX; assay: Herbicidal activity, upland test, post-emergence
Text: as §1, §5, §6, §4

[12] = tested on: GOSHI; assay: Herbicidal activity, upland test, post-emergence
Text: as §1, §5, §6, §4

[13] = tested on: ORYSA; assay: Herbicidal activity, upland test, post-emergence
Text: as §1, §5, §6, §4

[14] = tested on: PANDI; assay: Herbicidal activity, upland test, post-emergence
Text: as §1, §5, §6, §4

[15] = tested on: SOLNI; assay: Herbicidal activity, upland test, post-emergence
Text: as §1, §5, §6, §4

[16] = tested on: SORBI; assay: Herbicidal activity, upland test, post-emergence
Text: as §1, §5, §6, §4

[17] = tested on: TRZAW; assay: Herbicidal activity, upland test, post-emergence
Text: as §1, §5, §6, §4

[18] = tested on: ZEAMX; assay: Herbicidal activity, upland test, post-emergence
Text: as §1, §5, §6, §4

[19] = tested on: ECHOR; assay: Herbicidal activity for paddy test
Method in brief: (§7)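 Pots of 115 cm^2 surface area are filled with sterilized sandy loam soil. Seeds of each paddy species are planted in furrows. Control is then rated by eye on a 0–100 % scale, where 100 means complete kill.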

[20] = tested on: MOOVA; assay: Herbicidal activity for paddy test
Method in brief: as §7

[21] = tested on: ORYSA; assay: Herbicidal activity for paddy test; details: for plant injury at 2 g/ha: 0.002 kg/ha; for plant injury at 8 g/ha: 0.008 kg/ha; for plant injury at 31 g/ha: 0.031 kg/ha; for plant injury at 125 g/ha: 0.125 kg/ha; for plant injury at 500 g/ha: 0.500 kg/ha
Method in brief: as §7

[22] = tested on: SAGPY; assay: Herbicidal activity for paddy test
Method in brief: as §7

[23] = tested on: SCPJU; assay: Herbicidal activity for paddy test
Method in brief: as §7

[24] = 3 Leaf, read-out: Herbicidal activity, ORYSA (3 Leaf)
[25] = seed, read-out: Herbicidal activity, ORYSA (seed)

Compound: CCCC(=NOC)C1=C(O)CC(c2c(C)c(C)c3c(c2C)CC(C)(C)C3)CC1=O (stereo not drawn) [Compound 6]
- Herbicidal activity, BROJA ([1]; 0.016 kg/ha): 0 % inhibition
- Herbicidal activity, BROJA ([1]; 0.063 kg/ha): 0 % inhibition
- Herbicidal activity, BROJA ([1]; 1.000 kg/ha): 80 % inhibition
- Herbicidal activity, BROJA ([1]; 1.250 kg/ha): 40 % inhibition
- Herbicidal activity, PANDI ([2]; 0.016 kg/ha): 0 % inhibition
- Herbicidal activity, PANDI ([2]; 0.063 kg/ha): 80 % inhibition
- Herbicidal activity, PANDI ([2]; 1.000 kg/ha): 100 % inhibition
- Herbicidal activity, PANDI ([2]; 1.250 kg/ha): 100 % inhibition
- Herbicidal activity, SOLNI ([3]; 0.016 kg/ha): 0 % inhibition
- Herbicidal activity, SOLNI ([3]; 0.063 kg/ha): 0 % inhibition
- Herbicidal activity, SOLNI ([3]; 1.000 kg/ha): 0 % inhibition
- Herbicidal activity, SOLNI ([3]; 1.250 kg/ha): 0 % inhibition
- Herbicidal activity, SORBI ([4]; 0.016 kg/ha): 0 % inhibition
- Herbicidal activity, SORBI ([4]; 0.063 kg/ha): 0 % inhibition
- Herbicidal activity, SORBI ([4]; 1.000 kg/ha): 30 % inhibition
- Herbicidal activity, SORBI ([4]; 1.250 kg/ha): 0 % inhibition
- Herbicidal activity, ZEAMX ([5]; 0.016 kg/ha): 0 % inhibition
- Herbicidal activity, ZEAMX ([5]; 0.063 kg/ha): 0 % inhibition
- Herbicidal activity, ZEAMX ([5]; 1.000 kg/ha): 40 % inhibition
- Herbicidal activity, ZEAMX ([5]; 1.250 kg/ha): 0 % inhibition
- Herbicidal activity, ABUTH ([6]; 0.016 kg/ha): 0 % inhibition
- Herbicidal activity, ABUTH ([6]; 0.063 kg/ha): 0 % inhibition
- Herbicidal activity, ABUTH ([6]; 1.000 kg/ha): 30 % inhibition
- Herbicidal activity, ABUTH ([6]; 1.250 kg/ha): 0 % inhibition
- Herbicidal activity, AESIN ([7]; 0.016 kg/ha): 0 % inhibition
- Herbicidal activity, AESIN ([7]; 0.063 kg/ha): 0 % inhibition
- Herbicidal activity, AESIN ([7]; 1.000 kg/ha): 20 % inhibition
- Herbicidal activity, AESIN ([7]; 1.250 kg/ha): 0 % inhibition
- Herbicidal activity, BROJA ([8]; 0.016 kg/ha): 0 % inhibition
- Herbicidal activity, BROJA ([8]; 0.063 kg/ha): 30 % inhibition
- Herbicidal activity, BROJA ([8]; 1.000 kg/ha): 100 % inhibition
- Herbicidal activity, BROJA ([8]; 1.250 kg/ha): 70 % inhibition
- Herbicidal activity, DIGSA ([9]; 0.016 kg/ha): 60 % inhibition
- Herbicidal activity, DIGSA ([9]; 0.063 kg/ha): 100 % inhibition
- Herbicidal activity, DIGSA ([9]; 1.000 kg/ha): 100 % inhibition
- Herbicidal activity, DIGSA ([9]; 1.250 kg/ha): 100 % inhibition
- Herbicidal activity, ECHOR ([10]; 0.016 kg/ha): 70 % inhibition
- Herbicidal activity, ECHOR ([10]; 0.063 kg/ha): 100 % inhibition
- Herbicidal activity, ECHOR ([10]; 1.000 kg/ha): 100 % inhibition
- Herbicidal activity, ECHOR ([10]; 1.250 kg/ha): 100 % inhibition
- Herbicidal activity, GLXMX ([11]; 0.016 kg/ha): 0 % inhibition
- Herbicidal activity, GLXMX ([11]; 0.063 kg/ha): 0 % inhibition
- Herbicidal activity, GLXMX ([11]; 1.000 kg/ha): 60 % inhibition
- Herbicidal activity, GLXMX ([11]; 1.250 kg/ha): 20 % inhibition
- Herbicidal activity, GOSHI ([12]; 0.016 kg/ha): 0 % inhibition
- Herbicidal activity, GOSHI ([12]; 0.063 kg/ha): 30 % inhibition
- Herbicidal activity, GOSHI ([12]; 1.000 kg/ha): 50 % inhibition
- Herbicidal activity, GOSHI ([12]; 1.250 kg/ha): 40 % inhibition
- Herbicidal activity, ORYSA ([13]; 0.016 kg/ha): 0 % inhibition
- Herbicidal activity, ORYSA ([13]; 0.063 kg/ha): 30 % inhibition
- Herbicidal activity, ORYSA ([13]; 1.000 kg/ha): 100 % inhibition
- Herbicidal activity, ORYSA ([13]; 1.250 kg/ha): 70 % inhibition
- Herbicidal activity, PANDI ([14]; 0.016 kg/ha): 40 % inhibition
- Herbicidal activity, PANDI ([14]; 0.063 kg/ha): 100 % inhibition
- Herbicidal activity, PANDI ([14]; 1.000 kg/ha): 100 % inhibition
- Herbicidal activity, PANDI ([14]; 1.250 kg/ha): 100 % inhibition
- Herbicidal activity, SOLNI ([15]; 0.016 kg/ha): 0 % inhibition
- Herbicidal activity, SOLNI ([15]; 0.063 kg/ha): 0 % inhibition
- Herbicidal activity, SOLNI ([15]; 1.000 kg/ha): 30 % inhibition
- Herbicidal activity, SOLNI ([15]; 1.250 kg/ha): 0 % inhibition
- Herbicidal activity, SORBI ([16]; 0.016 kg/ha): 0 % inhibition
- Herbicidal activity, SORBI ([16]; 0.063 kg/ha): 30 % inhibition
- Herbicidal activity, SORBI ([16]; 1.000 kg/ha): 70 % inhibition
- Herbicidal activity, SORBI ([16]; 1.250 kg/ha): 50 % inhibition
- Herbicidal activity, TRZAW ([17]; 0.016 kg/ha): 0 % inhibition
- Herbicidal activity, TRZAW ([17]; 0.063 kg/ha): 30 % inhibition
- Herbicidal activity, TRZAW ([17]; 1.000 kg/ha): 100 % inhibition
- Herbicidal activity, TRZAW ([17]; 1.250 kg/ha): 50 % inhibition
- Herbicidal activity, ZEAMX ([18]; 0.016 kg/ha): 0 % inhibition
- Herbicidal activity, ZEAMX ([18]; 0.063 kg/ha): 60 % inhibition
- Herbicidal activity, ZEAMX ([18]; 1.000 kg/ha): 100 % inhibition
- Herbicidal activity, ZEAMX ([18]; 1.250 kg/ha): 100 % inhibition
- pest or weed control at 2 g/ha ([19]; 0.002 kg/ha): 0%
- pest or weed control at 8 g/ha ([19]; 0.008 kg/ha): 60%
- pest or weed control at 31 g/ha ([19]; 0.031 kg/ha): 100%
- pest or weed control at 125 g/ha ([19]; 0.125 kg/ha): 100%
- pest or weed control at 500 g/ha ([19]; 0.500 kg/ha): 100%
- pest or weed control at 2 g/ha ([20]; 0.002 kg/ha): 0%
- pest or weed control at 8 g/ha ([20]; 0.008 kg/ha): 0%
- pest or weed control at 31 g/ha ([20]; 0.031 kg/ha): 0%
- pest or weed control at 125 g/ha ([20]; 0.125 kg/ha): 0%
- pest or weed control at 500 g/ha ([20]; 0.500 kg/ha): 0%
- plant injury at 2 g/ha [21, 24]: 0%
- plant injury at 8 g/ha [21, 24]: 0%
- plant injury at 31 g/ha [21, 24]: 0%
- plant injury at 125 g/ha [21, 24]: 20%
- plant injury at 500 g/ha [21, 24]: 65%
- plant injury at 2 g/ha [21, 25]: 0%
- plant injury at 8 g/ha [21, 25]: 0%
- plant injury at 31 g/ha [21, 25]: 100%
- plant injury at 125 g/ha [21, 25]: 100%
- plant injury at 500 g/ha [21, 25]: 100%
- pest or weed control at 2 g/ha ([22]; 0.002 kg/ha): 0%
- pest or weed control at 8 g/ha ([22]; 0.008 kg/ha): 0%
- pest or weed control at 31 g/ha ([22]; 0.031 kg/ha): 0%
- pest or weed control at 125 g/ha ([22]; 0.125 kg/ha): 0%
- pest or weed control at 500 g/ha ([22]; 0.500 kg/ha): 40%
- pest or weed control at 2 g/ha ([23]; 0.002 kg/ha): 0%
- pest or weed control at 8 g/ha ([23]; 0.008 kg/ha): 0%
- pest or weed control at 31 g/ha ([23]; 0.031 kg/ha): 0%
- pest or weed control at 125 g/ha ([23]; 0.125 kg/ha): 0%
- pest or weed control at 500 g/ha ([23]; 0.500 kg/ha): 0%
